# Results as given in ChEMBL document CHEMBL1201862, “PubChem BioAssay data set” (2004).
#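 These data come from cells grown in 96-well plates and exposed to compound for 48 hours at five concentrations. The concentration for 50% growth inhibition is given as GI50.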 Activity calls are given as the source filed them. Rule as the data show it: active = GI50 up to about 1.1 µM and inactive = higher.
# How the values were obtained:
# Assay in all cases: growth of human tumour cells (NCI), 48 h
# DMS-114 = tested on: DMS-114
# SF-268 = tested on: SF-268
# EKVX = tested on: EKVX
# CAKI-1 = tested on: CAKI-1
# SNB-19 = tested on: SNB-19
# ACHN = tested on: ACHN
# HOP-92 = tested on: HOP-92
# DLD-1 = tested on: DLD-1
# NCI-H226 = tested on: NCI-H226
# UACC-62 = tested on: UACC-62
# HCC 2998 = tested on: HCC 2998
# HOP-62 = tested on: HOP-62
# NCI-H23 = tested on: NCI-H23
# SNB-78 = tested on: SNB-78
# CCRF-CEM = tested on: CCRF-CEM
# SN12C = tested on: SN12C
# KM-20L2 = tested on: KM-20L2
# HOP-18 = tested on: HOP-18
# Malme-3M = tested on: Malme-3M
# RPMI-8226 = tested on: RPMI-8226
# COLO 205 = tested on: COLO 205
# RXF 393 = tested on: RXF 393
# A549 = tested on: A549
# NCI-H460 = tested on: NCI-H460
# OVCAR-4 = tested on: OVCAR-4
# RXF 631 = tested on: RXF 631
# HCT-116 = tested on: HCT-116
# SK-MEL-5 = tested on: SK-MEL-5
# OVCAR-3 = tested on: OVCAR-3
# SR = tested on: SR
# SK-MEL-28 = tested on: SK-MEL-28
# UACC-257 = tested on: UACC-257
# SW-620 = tested on: SW-620
# K562 = tested on: K562
# HT-29 = tested on: HT-29
# M19-MEL = tested on: M19-MEL
# DMS-273 = tested on: DMS-273
# MOLT-4 = tested on: MOLT-4
# U-251 = tested on: U-251
# KM12 = tested on: KM12
# SK-MEL-2 = tested on: SK-MEL-2
# A498 = tested on: A498
# SK-OV-3 = tested on: SK-OV-3
# SNB-75 = tested on: SNB-75
# HCT-15 = tested on: HCT-15
# LXFL 529 = tested on: LXFL 529
# SF-295 = tested on: SF-295
# IGROV-1 = tested on: IGROV-1
# UO-31 = tested on: UO-31
# OVCAR-5 = tested on: OVCAR-5
# HL-60 = tested on: HL-60
# M14 = tested on: M14
# 786-0 = tested on: 786-0
# SF-539 = tested on: SF-539
# OVCAR-8 = tested on: OVCAR-8
# NCI-H522 = tested on: NCI-H522
structure (smiles),measurement,setting,value
Cc1cccc(-n2c(=S)[nH]c3c(sc(=O)n3-c3ccccc3C)c2=O)c1,GI50,DMS-114,> 100 µM (inactive)
same,GI50,SF-268,> 100 µM (inactive)
same,GI50,EKVX,> 100 µM (inactive)
same,GI50,CAKI-1,> 100 µM (inactive)
same,GI50,SNB-19,> 100 µM (inactive)
same,GI50,ACHN,> 100 µM (inactive)
same,GI50,HOP-92,> 100 µM (inactive)
same,GI50,DLD-1,> 100 µM (inactive)
same,GI50,NCI-H226,> 100 µM (inactive)
same,GI50,UACC-62,> 100 µM (inactive)
same,GI50,HCC 2998,> 100 µM (inactive)
same,GI50,HOP-62,> 100 µM (inactive)
same,GI50,NCI-H23,> 100 µM (inactive)
same,GI50,SNB-78,> 100 µM (inactive)
same,GI50,CCRF-CEM,> 100 µM (inactive)
same,GI50,SN12C,> 100 µM (inactive)
same,GI50,KM-20L2,> 100 µM (inactive)
same,GI50,HOP-18,> 100 µM (inactive)
same,GI50,Malme-3M,> 100 µM (inactive)
same,GI50,RPMI-8226,> 100 µM (inactive)
same,GI50,COLO 205,> 100 µM (inactive)
same,GI50,RXF 393,> 100 µM (inactive)
same,GI50,A549,> 100 µM (inactive)
same,GI50,NCI-H460,> 100 µM (inactive)
same,GI50,OVCAR-4,> 100 µM (inactive)
same,GI50,RXF 631,> 100 µM (inactive)
same,GI50,HCT-116,> 100 µM (inactive)
same,GI50,SK-MEL-5,> 100 µM (inactive)
same,GI50,OVCAR-3,> 100 µM (inactive)
same,GI50,SR,> 100 µM (inactive)
same,GI50,SK-MEL-28,> 100 µM (inactive)
same,GI50,UACC-257,> 100 µM (inactive)
same,GI50,SW-620,> 100 µM (inactive)
same,GI50,K562,> 100 µM (inactive)
same,GI50,HT-29,> 100 µM (inactive)
same,GI50,M19-MEL,> 100 µM (inactive)
same,GI50,DMS-273,> 100 µM (inactive)
same,GI50,MOLT-4,> 100 µM (inactive)
same,GI50,U-251,> 100 µM (inactive)
same,GI50,KM12,> 100 µM (inactive)
same,GI50,SK-MEL-2,> 100 µM (inactive)
same,GI50,A498,> 100 µM (inactive)
same,GI50,SK-OV-3,> 100 µM (inactive)
same,GI50,SNB-75,> 100 µM (inactive)
same,GI50,HCT-15,> 100 µM
same,GI50,LXFL 529,> 100 µM (inactive)
same,GI50,SF-295,> 100 µM (inactive)
same,GI50,IGROV-1,> 100 µM (inactive)
same,GI50,UO-31,> 100 µM (inactive)
same,GI50,OVCAR-5,> 100 µM (inactive)
same,GI50,HL-60,> 100 µM (inactive)
same,GI50,M14,> 100 µM (inactive)
same,GI50,786-0,> 100 µM (inactive)
same,GI50,SF-539,> 100 µM (inactive)
same,GI50,OVCAR-8,> 100 µM (inactive)
same,GI50,NCI-H522,> 100 µM (inactive)
